Experiments:
[1] = system: human breast cancer MDA-MB-231 cell line; assay: AlamarBlue cytotoxicity, 2,2′-BPBPA series, MDA-MB-231; type: cell-based; conditions: 24, 48, 72 h
Protocol: Cell culture methods. MCF-7 and MDA-MB-231 were incubated using DMEM at 37° C. in 5% CO2. The hFOB 1.19 cell lines were incubated with DMEM: F12 at 34° C. in 5% CO2.
Cell lines were supplemented using 10% FBS and 1% Pen-Strep. The media was replaced twice per week. Cell passages were carried out at 80% confluency.
Cell-based assays. Cell lines were seeded in 96 well plates at a density of 5x 10^3 cells/mL and incubated for 24 h before treatment. Cells were treated with 100 μL of 2,2′-BPBPA (0-400 μM), unloaded and loaded nano-Ca@2,2′-BPBPA (6.3-50 μM) for 24, 48, and 72 h.
Control groups were treated with media (DMEM or DMEM: F12) supplemented with 1% Pen-Strep. Cell viability was determined by employing AlamarBLue@. The media was replaced with 100 μL of 10% AlamarBlue® solution. After 24 h of incubation, the fluorescence was assessed at )max of 560 nm for excitation and 590 nm for emission.
Cell culture methods. MCF-7 and MDA-MB-231 were incubated using DMEM at 37° C. in 5% CO2. The hFOB 1.19 cell lines were incubated with DMEM: F12 at 34° C. in 5% CO2. Cell lines were supplemented using 10% FBS and 1% Pen-Strep. The media was replaced twice times per week. Cell passages were carried out at 80% confluency.
Seeding. […]
AlamarBlue@assay. […] Then, the fluorescence was assessed at 560 nm of excitation and λmax 590 nm of emission. […]

[2] = Release of letrozole from drug-loaded BPBPA-Ca in FaSSGF; type: physicochemical
Protocol: (§1) LET release curve from BPBPA-Ca. The release curve of LET from BPBPA-Ca was determined in FaSSGF. About 100 mL of FaSSGF were placed in a 250-mL beaker and left in constant stirring at 37° C. (150 rpm). To record the first time point (0 h), an aliquot (1 mL) was taken out before adding the drug-loaded BPBPA-Ca. Subsequently, about 20 mg of powdered drug-loaded BPBPA-Ca (experimental) were placed into the FaSSGF solution. After each time point (0, 1, 3, 6, 24, 48, and 72 h), an aliquot (1 mL) was taken out and diluted in a 5 mL volumetric flask. Once the experiment was completed, the absorbance was measured at 238 nm to determine the amount (%) of LET release from the BPBPA-Ca. The release curve of LET (control) in FaSSGF was determined for comparison. This experiment was accomplished in duplicate.
Furthermore, the release of LET from the drug-loaded BPBPA-Ca was investigated in FaSSGF (pH=1.60) at 37° C. The LET released from BPBPA-Ca was quantified by measuring the increase in the LET concentration over time of the supernatant at the lambda max (λmax=238 nm). It was noticed that the drug-loaded BPBPA-Ca reaches a maximum release of LET ([…]) at 24 h (FIG. 91B). […] These findings confirm that BPBPA-Ca can be degraded in acidic conditions and release its cargo (LET) in a controlled and pH-dependent manner.
as §1, with “Release experiment.” for “LET release curve from BPBPA-Ca.”, “performed” for “accomplished”, “duplicate. FIG. 150 depicts the release curve of LET from the BPBPA-Ca channels.” for “duplicate.”

SMILES | IC50 [1] [µM] | LET released (mean) ([2]; FaSSGF pH 1.60, 37 °C, 1 h) [%] | LET released (mean) ([2]; FaSSGF, 3 h) [%] | LET released (mean) ([2]; FaSSGF, 6 h) [%] | LET released (mean) ([2]; FaSSGF, 24 h) [%] | LET released (mean) ([2]; FaSSGF, 48 h) [%] | LET released (mean) ([2]; FaSSGF, 72 h) [%]
O=P(O)(O)c1ccc(-c2ccc(P(=O)(O)O)cn2)nc1 [2,2′-BPBPA, 2,2′-bipyridine-5,5′-bisphosphonic acid] | > 200 |  |  |  |  |  | 
N#Cc1ccc(C(c2ccc(C#N)cc2)n2cncn2)cc1 [LET, letrozole] |  | 65 | 72 | 75 | 93 | 94 | 94

From patent US20250296942A1, “Phosphonate-Based Coordination Complexes and Methods of Preparation and Use Thereof” (University of Puerto Rico, priority 2021, published 2025)
